Reference: the supplement of paper PMC4862054
Where “and” joins values, the source holds several entries; their conditions need not be identical. Equal entries are not always repeated.

How the values were obtained:
CAL-51 [1] = assay: normalised viability (% of control), CellTiter-Blue; higher = more viable cells (about 100 = DMSO control); settings: incubation time: 72 h
Outline: (§1)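 Each value is normalised viability at a single listed concentration of the series. Breast cancer cell lines in 384-well plates were incubated 72 h with compound and read by CellTiter-Blue fluorescence at 560/590 nm, with vehicle set to 100 and a positive kill control to 0 on every plate.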

HDQ-P1 [2] = assay: as above; settings: incubation time: 72 h
Outline: as §1

CAL-85-1 [3] = assay: as above; settings: incubation time: 72 h
Outline: as §1

CAL-51 [4] = settings: 72 h
Experimental: (§2)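 Drug sensitivity and resistance testing (DSRT) of breast cancer cell lines in 384-well plates, 5 concentrations in 10-fold dilutions over a compound-specific 10,000-fold range. After 72 h, cytotoxicity was read by CellTox Green fluorescence and viability by CellTiter-Glo luminescence (multiplexed), normalised to DMSO and benzethonium chloride controls. EC50 is the inflection point of the fitted dose-response curve (bottom asymptote free, so it can be relative for partial curves) and is censored at the highest tested concentration. Rows with DSS 0 (no meaningful response) were excluded.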

CAL-85-1 [5] = settings: 72 h
Experimental: as §2

BT-549 [6] = settings: 72 h
Experimental: as §2

CAL-51 [7] = settings: 72 h; remark: listed apart in the source
Outline: (§3)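 A 20 µl suspension of breast cancer cells was placed in 384-well plates that already contained compound at 5 concentrations in 10-fold steps across a compound-specific 10,000-fold range, and the plates were left for 72 h. CellTox Green fluorescence at 485/520 nm gave cell death, and CellTiter-Glo luminescence, read after 10 min at room temperature, gave viability. Each plate was normalised to 0.1 % DMSO and a positive kill control. EC50 was fitted from the curves and censored at the top concentration.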

MDA-MB-468 = settings: 72 h
Outline: as §3

CAL-85-1 [8] = settings: 72 h; remark: listed apart in the source
Outline: as §3

BT-474 [9] = settings: 72 h
Outline: as §3

BT-549 [10] = settings: 72 h; remark: listed apart in the source
Outline: as §3

BT-474 [11] = settings: 72 h; remark: listed apart in the source
Outline: (§4)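 Rows with a drug sensitivity score of zero were dropped, and EC50 was taken from the fitted percent-inhibition dose-response curve, censored at the highest concentration. Data were normalised on each plate to vehicle and a positive kill control and checked by Z'-factor. The assay seeded breast cancer cell lines in 20 µl onto 384-well plates pre-loaded with compound in 5 µl medium for 72 h, then added 2.5 µl CellTiter-Blue for 2 h at 37 °C and read fluorescence at 560/590 nm.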

HDQ-P1 [12] = settings: 72 h
Outline: as §4

HDQ-P1 [13] = settings: 72 h; remark: listed apart in the source
Experimental: as §2

BT-474 [14] = settings: 72 h; remark: listed apart in the source
Experimental: as §2

MDA-MB-231 [15] = settings: 72 h
Experimental: as §2

MDA-MB-453 = settings: 72 h
Outline: as §3

MDA-MB-231 [16] = settings: 72 h; remark: listed apart in the source
Outline: as §3

`CCNC(=O)CCC/C=C\C[C@@H]1[C@@H](/C=C/[C@@H](O)CCc2ccccc2)[C@H](O)C[C@@H]1O` [Bimatoprost] (5500 nM) showed a normalised viability (CAL-51 [1]) of 114%, a normalised viability (HDQ-P1 [2]) of 115% and a normalised viability (CAL-85-1 [3]) of 92.2%.
For `C/C(=C\c1csc(C)n1)[C@@H]1C[C@@H]2O[C@]2(C)CCC[C@H](C)[C@H](O)[C@@H](C)C(=O)C(C)(C)[C@@H](O)CC(=O)N1` [Ixabepilone], the “EC50, CellTox Green” value (CAL-51 [4]) was 38.4 nM, the “EC50, CellTox Green” value (CAL-85-1 [5]) was 437 nM and the “EC50, CellTox Green” value (BT-549 [6]) was 10.8 nM. For the same molecule, the “EC50, CellTiter-Glo” value (CAL-51 [7]) was 23 nM, the “EC50, CellTiter-Glo” value (MDA-MB-468) was 31.4 nM and the “EC50, CellTiter-Glo” value (CAL-85-1 [8]) was 660 nM. The “EC50, CellTiter-Glo” value (BT-474 [9]) was 808 nM, the “EC50, CellTiter-Glo” value (BT-549 [10]) was 38.2 nM and the “EC50, CellTiter-Blue viability” value (BT-474 [11]) was 672 nM.
`CO[C@@]12[C@H](COC(N)=O)C3=C(C(=O)C(C)=C(N)C3=O)N1C[C@@H]1N[C@@H]12` [Mitomycin C] (10000 nM) was tested, and the normalised viability (CAL-51 [1]) was 4.34%, the normalised viability (HDQ-P1 [2]) was 42.6% and the normalised viability (CAL-85-1 [3]) was 2.67%.
In the case of `Cc1cn(-c2cc(NC(=O)c3ccc(C)c(Nc4nccc(-c5cccnc5)n4)c3)cc(C(F)(F)F)c2)cn1` [Nilotinib] (10000 nM), the normalised viability (CAL-51 [1]) is reported as 103% and 100%, the normalised viability (HDQ-P1 [2]) is reported as 84.2% and 86.2% and the normalised viability (CAL-85-1 [3]) is reported as 86.3% and 84.9%.
With `O=C(CCCCCCC(=O)Nc1ccccc1)NO` [Vorinostat] (10000 nM) the normalised viability (CAL-51 [1]) was 59.7% and 50.3%, the normalised viability (HDQ-P1 [2]) was 51.6% and 62.6% and the normalised viability (CAL-85-1 [3]) was 30.1% and 32.4%.
`CC(C)C[C@H](NC(=O)[C@@H](COC(C)(C)C)NC(=O)[C@H](Cc1ccc(O)cc1)NC(=O)[C@H](CO)NC(=O)[C@H](Cc1c[nH]c2ccccc12)NC(=O)[C@H](Cc1cnc[nH]1)NC(=O)[C@@H]1CCC(=O)N1)C(=O)N[C@@H](CCCNC(=N)N)C(=O)N1CCC[C@H]1C(=O)NNC(N)=O` [Goserelin] (10000 nM) showed a normalised viability (CAL-51 [1]) of 109%, a normalised viability (HDQ-P1 [2]) of 140% and a normalised viability (CAL-85-1 [3]) of 84.9%.
In the case of `CCn1c(C(=O)N(C2CC2)C2CC2)cc2c3c(ncn3C)c(Nc3cc(C)n(C)n3)nc21`, the “EC50, CellTiter-Glo” value (MDA-MB-468) is reported as over 10000 nM.
For `CCNC(=O)c1noc(-c2cc(C(C)C)c(O)cc2O)c1-c1ccc(CN2CCOCC2)cc1` [NVP-AUY922] (1000 nM), the normalised viability (CAL-51 [1]) was 8.3%, the normalised viability (HDQ-P1 [2]) was 32.7% and the normalised viability (CAL-85-1 [3]) was 26.6%.
For `CNC(=O)c1ccccc1Sc1ccc2c(/C=C/c3ccccn3)n[nH]c2c1` [Axitinib] (10000 nM), the normalised viability (CAL-51 [1]) was 37.3%, the normalised viability (HDQ-P1 [2]) was 67.3% and the normalised viability (CAL-85-1 [3]) was 67.2%.
`COc1cc(Nc2c(C#N)cnc3cc(OCCCN4CCN(C)CC4)c(OC)cc23)c(Cl)cc1Cl` [Bosutinib] (10000 nM) showed a normalised viability (CAL-51 [1]) of 11.1%, a normalised viability (HDQ-P1 [2]) of 4.45% and a normalised viability (CAL-85-1 [3]) of 12.4%.
`C=CCN(/C=C1/C(=O)O[C@H](COC)[C@@]2(C)C1=C(O)C(=O)C1=C2[C@H](OC(C)=O)C[C@]2(C)C(=O)CC[C@@H]12)CC=C` [Sonolisib] was tested, and the “EC50, CellTiter-Glo” value (CAL-51 [7]) was 390 nM.
For `O=C(O)CNC(=O)c1c(O)c2ccccc2n(Cc2ccccc2)c1=O` [IOX-2], the “EC50, CellTox Green” value (BT-549 [6]) was 1170 nM, the “EC50, CellTiter-Glo” value (CAL-51 [7]) was 1020 nM and the “EC50, CellTiter-Glo” value (BT-549 [10]) was over 50000 nM.
In the case of `C=CCN(/C=C1/C(=O)O[C@H](COC)[C@@]2(C)C1=C(O)C(=O)C1=C2[C@H](OC(C)=O)C[C@]2(C)C(=O)CC[C@@H]12)CC=C` [PX-866], the “EC50, CellTiter-Blue viability” value (HDQ-P1 [12]) is reported as 2170 nM and the “EC50, CellTiter-Blue viability” value (BT-474 [11]) is reported as 1680 nM.
`CC1(C)CCC(c2ccc(Cl)cc2)=C(CN2CCN(c3ccc(C(=O)NS(=O)(=O)c4ccc(N[C@H](CCN5CCOCC5)CSc5ccccc5)c(S(=O)(=O)C(F)(F)F)c4)cc3)CC2)C1` [Navitoclax] (10000 nM) gave a normalised viability (CAL-51 [1]) of 77%, a normalised viability (HDQ-P1 [2]) of 60.2% and a normalised viability (CAL-85-1 [3]) of 71.3%.
`CO[C@@H]1[C@H](N(C)C(=O)c2ccccc2)C[C@H]2O[C@]1(C)n1c3ccccc3c3c4c(c5c6ccccc6n2c5c31)C(=O)NC4` [Midostaurin] (10000 nM) gave a normalised viability (CAL-51 [1]) of 4.73%, a normalised viability (HDQ-P1 [2]) of 80.1% and a normalised viability (CAL-85-1 [3]) of 78.9%.
`C=CCn1c(=O)c2cnc(Nc3ccc(N4CCN(C)CC4)cc3)nc2n1-c1cccc(C(C)(C)O)n1` [MK1775] (10000 nM) was tested, and the normalised viability (CAL-51 [1]) was 2.98%, the normalised viability (HDQ-P1 [2]) was 16% and the normalised viability (CAL-85-1 [3]) was 17.4%.
For `CN[C@@H](C)C(=O)N[C@H]1CN(C(=O)CC(C)C)CC[C@H]2CC[C@@H](C(=O)NC(c3ccccc3)c3ccccc3)N2C1=O` [AT-406], the “EC50, CellTox Green” value (HDQ-P1 [13]) was 5140 nM, the “EC50, CellTox Green” value (CAL-85-1 [5]) was 75.9 nM and the “EC50, CellTox Green” value (BT-474 [14]) was over 10000 nM. For the same molecule, the “EC50, CellTox Green” value (MDA-MB-231 [15]) was 81.2 nM, the “EC50, CellTox Green” value (BT-549 [6]) was 18.9 nM and the “EC50, CellTiter-Glo” value (MDA-MB-468) was 563 nM. The “EC50, CellTiter-Glo” value (CAL-85-1 [8]) was 826 nM, the “EC50, CellTiter-Glo” value (MDA-MB-453) was 4490 nM and the “EC50, CellTiter-Glo” value (BT-474 [9]) was 83.8 nM. The “EC50, CellTiter-Glo” value (MDA-MB-231 [16]) was 278 nM and the “EC50, CellTiter-Glo” value (BT-549 [10]) was 5.97 nM.
In the case of `Nc1ccn([C@@H]2O[C@H](CO)[C@@H](O)C2(F)F)c(=O)n1` [Gemcitabine] (1000 nM), the normalised viability (CAL-51 [1]) is reported as 7.26%, the normalised viability (HDQ-P1 [2]) is reported as 100% and the normalised viability (CAL-85-1 [3]) is reported as 5.03%.
